Source: patent US20040097435A1, “Method of treating parasitic infection” (Pfizer Inc, priority 2000, published 2004)
Read-outs that look alike come from different tables or passages of the source.

Legend:
intestinal nematode = conditions: administered to pregnant bitch from pregnancy past parturition; Veterinary Parasitology, 1999, 85, 305; cited from earlier work
[1] = system: ectoparasites such as fleas; conditions: companion animals; cited from earlier work
[2] = 6 mg/kg topical at monthly intervals during pregnancy and post partum, female cats
Toxocara cati = conditions: post partum day 49
Description: (§1) Thirty-eight adult females were allocated randomly to one of two treatments: placebo (negative control, 19 animals), or selamectin (19 animals). The selamectin, was formulated as: […]
(§2) Doses providing 6 mg/kg of selamectin were administered topically in a single spot on the skin of each female's back at the base of the neck in front of the shoulder blades on days 0 and 30 to individually-housed females and to females group-housed for mating on days 0, 30, 60 and 90 as required until kittening. All females were treated on post partum days 10 and 38. Treatments were not administered to kittens. […]. Study day 0 was defined individually for each adult female as the day on which the first treatment with either placebo or selamectin was administered and post partum day 1 was defined as the day following the day of delivery of the last kitten in the litter.
Each adult female was inoculated once with approximately 1000 embryonated T. cati ova, per os, between 150 and 31 days prior to commencing the study and again between 5 and 21 days before kittening.
On post partum day 49, each kitten was euthanased, its gastrointestinal tract was removed and intestinal larvae (L4) and adult T. cati were enumerated.

Ctenocephalides felis [3] = system: Ctenocephalides felis
Description: (§3) Twenty-one adult females were allocated randomly to one of two treatments: placebo (negative control, 11 animals), or selamectin (10 animals). The selamectin, was formulated as: […]
(§4) Doses providing 6 mg/kg of selamectin were administered topically approximately 40 days and 10 days pre-partum and 10 days and 38 days post-partum in a single spot on the skin of each female's back at the base of the neck in front of the shoulder blades. Treatments were not administered to puppies. Post-partum day 1 was defined individually for each adult female as the day following the day of delivery of the last puppy in the litter.
(§5) Following observations of signs of pro-oestrus, the females were moved into randomly allocated carpeted pens in a building where the environment was suitable for the rapid completion of the flea reproductive cycle.
(§6) Each adult female was infested with 100 viable unfed adult C. felis approximately 60 days and 46 days pre-partum, and with 10 viable unfed adult fleas approximately 39, 33, 26, 19, 14 and 5 days pre-partum; an additional infestation was performed 7 days later if the female had not whelped. Each lactating female was also infested with 10 fleas on post-partum days 6, 15, 21, 28, 34 and 42. Comb counts of the number of viable adult fleas present on each female were made on approximately pre-partum days 41 and 11, and on postpartum days 9, 37 and 45. Comb counts of the fleas present on each puppy were performed on post-partum days 15, 24, 34, 42 and 45. After counting, up to 50 fleas per pregnant/lactating female and up to five fleas per puppy were replaced on each dog. For welfare reasons, if any dog was scratching or grooming excessively, additional unscheduled comb counts were performed on that dog and if necessary, the carpet was partially or entirely replaced to reduce the environmental flea challenge. Faecal egg counts for T. canis were performed for pregnant/lactating females on approximately pre-partum day 2 and on post-partum days 9, 17, 24 and 45, and for puppies on post-partum days 24 and 34.

Toxocara canis [4] = conditions: 6 mg/kg topical to dam; for geometric mean faecal egg count: puppies born to treated females
Description: as §3, §4, §5, §6

Toxocara canis [5] = conditions: 6 mg/kg topical to dam
Description: as §3, §4, §5
On post-partum day 45, each puppy was euthanised, its gastro-intestinal tract was removed and intestinal larval (L4) and adult T. canis were enumerated.

[6] = 6 mg/kg topical at monthly intervals during pregnancy and post-partum, female dogs
Ctenocephalides felis [7] = system: Ctenocephalides felis; remark: listed apart in the source
Description: as §1, §2

[8] = kittens at necropsy, 6 mg/kg topical to dam

Molecule	prevention of intestinal nematode infections in pups (intestinal nematode)	activity against ectoparasites such as fleas [1]	safety of treatment [2]	geometric mean L4 T. cati count (Toxocara cati; [8])	geometric mean adult T. cati count (Toxocara cati; [8])	reduction in mean adult T. cati count compared with kittens born to placebo-treated females (Toxocara cati) [%]	reduction in mean fourth stage larvae (L4) T. cati count compared with kittens born to placebo-treated females (Toxocara cati) [%]	reduction in mean flea comb counts compared with puppies born to placebo-treated females (Ctenocephalides felis [3]; puppies, all counting days (post-partum days 15, 24, 34, 42 and 45)) [%]	geometric mean flea comb count (Ctenocephalides felis [3]; puppies, all counting days (post-partum days 15, 24, 34, 42 and 45), 6 mg/kg topical to dam)	females or their puppies requiring additional flea control measures (Ctenocephalides felis [3]; to maintain flea burdens within acceptable limits)	reduction in mean faecal egg count compared with puppies born to placebo-treated females (Toxocara canis [4]; post-partum day 24) [%]	reduction in mean faecal egg count compared with puppies born to placebo-treated females (Toxocara canis [4]; post-partum day 34) [%]	geometric mean faecal egg count (Toxocara canis [4]; post-partum day 24) [epg]	geometric mean faecal egg count (Toxocara canis [4]; post-partum day 34) [epg]	reduction in mean adult T. canis count compared with puppies born to placebo-treated females (Toxocara canis [5]; necropsy post partum day 45) [%]	geometric mean adult T. canis worm count (Toxocara canis [5]; puppies at necropsy, post-partum day 45)	safety of treatment [6]	females or their kittens requiring additional flea control measures (Ctenocephalides felis [7]; after the first treatment on day 0, to maintain flea burdens within acceptable limits)	reduction in mean flea comb counts compared with kittens born to placebo-treated females (Ctenocephalides felis [7]; kittens, all counting days (post partum days 15, 24, 34, 42 and 49)) [%]	geometric mean flea comb count (Ctenocephalides felis [7]; kittens, all counting days (post partum days 15, 24, 34, 42 and 49), 6 mg/kg topical to dam)
ivermectin	can prevent intestinal nematode infections in pups	poor activity	–	–	–	–	–	–	–	–	–	–	–	–	–	–	–	–	–	–
CO[C@H]1C[C@H](O[C@H]2[C@H](C)O[C@@H](O[C@@H]3/C(C)=C/C[C@@H]4C[C@@H](C[C@]5(C=C[C@H](C)[C@@H](C6CCCCC6)O5)O4)OC(=O)[C@@H]4C=C(C)[C@@H](O)[C@H]5OC/C(=C\C=C\[C@@H]3C)[C@]54O)C[C@@H]2OC)O[C@@H](C)[C@@H]1O [doramectin]	–	poor activity	–	–	–	–	–	–	–	–	–	–	–	–	–	–	–	–	–	–
CO[C@H]1C[C@H](O[C@@H]2/C(C)=C/C[C@@H]3C[C@@H](C[C@]4(CC[C@H](C)[C@@H](C5CCCCC5)O4)O3)OC(=O)[C@@H]3C=C(C)/C(=N/O)[C@H]4OC/C(=C\C=C\[C@@H]2C)[C@]43O)O[C@@H](C)[C@@H]1O [selamectin]	–	–	safe	0.0	0.0	100	100	100.0	0	None	96.8	96.1	0.8	2.1	98.2	0.1	safe	none	100	zero
